Results taken from patent publication US8058306B2, “Phenyl pyrrole aminoguanidine derivatives” (Action Pharma A/S, priority 2006, dated 2011).
Several values for one entry are separate records, joined by “and”; a condition that tells them apart may be missing. Equal values may be shown once. Entries after “also recorded” stand apart in the source; their conditions may differ. Read-outs that look alike come from different tables or passages of the source.

Test: Plasma kinetics in rat following intravenous and oral administration
Assay type: in vivo, Sprague Dawley rats
Conditions: male rats
Protocol: This study determined the intravenous pharmacokinetics and oral bioavailability of compound 1 of the invention (see FIG. 1A, structure no. 1), compound 2 of the invention (see FIG. 1D, structure no. 19) and compound 3 of the invention (see FIG. 1I, structure no. 53) following administration to Sprague Dawley rats at a dose level of 10 mg/kg.
Six groups of 3 male rats received either a single intravenous or single oral administration of compound 1, 2 or 3 of the invention at a dose level of 10 mg/kg. Blood samples were obtained at various times after dosing. Plasma samples were analysed for unchanged test item using a suitable LC-MS/MS method. Pharmacokinetic parameters were estimated from individual plasma concentrations.
Eighteen male rats each received either a single intravenous or a single oral administration of either compound 1, 2 or 3 at a dose level of 10 mg/kg. The formulation was orally administered to each animal by gastric gavage and intravenously administered to each animal via a tail vein. The dose was administered at a dose volume of 5 mL/kg. The formulations were administered to each animal according to the details in the following table:
Blood samples (ca 0.3 mL) were removed from the femoral vein of each animal into tubes containing lithium heparin as anticoagulant.
Blood samples were collected from 3 rats at the following times after dose administration: • 3, 6, 15, 45 min and 1.5, 2.5, 4, 6, 8, 24 h post dose. Oral Administration
Blood samples were collected from 3 rats at the following times after dose administration: • 5, 15, 45 min and 1.5, 2.5, 4, 6, 8, 24 h post dose. Processing of Blood Samples
Pharmacokinetic parameters of compound 1, 2 and 3 were derived by non-compartmental analysis using WinNonLin Pro version 5.0.1 (Pharsight 2005). The following parameters were derived, where appropriate, from the individual plasma concentration versus time profiles:
• F % The absolute oral bioavailability calculated as [AUC0-t (oral)*Dose(iv)/AUC0-t (iv)*Dose (oral)]*100 based on mean values derived after oral and intravenous administration Consideration was given to the estimation of λz and corresponding t1/2 values. Three or more points are required within the terminal phase for λz and t1/2 to be estimated. The following additional variables were tabulated to aid identification of potentially unreliable estimates of t1/2 and AUC:
Pharmacokinetic parameters were reported as geometric mean except Tmax which was reported as the median. Geometric coefficient of variation was calculated as: […]
Actual sampling times were used for all calculations of pharmacokinetic parameters. Plasma concentrations that were below the limit of quantification were taken as zero for the pharmacokinetic analysis.

[1] = oral 10 mg/kg, individual animals, acetate, 10 mg/kg

`N=C(N)NN=CC=Cc1cccn1-c1ccc(Cl)cc1` [Compound 1, [1-(4-chlorophenyl)-1H-pyrrol-2-yl-allylideneamino]guanidinium acetate] showed a Cmax (male, Sprague Dawley, rat, plasma, po, 10 mg/kg, oral 10 mg/kg, Arithmetic Mean, read-out: Cmax) of 0.104 µg/mL, a Tmax (male, Sprague Dawley, rat, plasma, po, 10 mg/kg, oral 10 mg/kg, Arithmetic Mean, read-out: tmax) of 6.65 h and an AUC(0-t) (male, Sprague Dawley, rat, plasma, po, 10 mg/kg, oral 10 mg/kg, Geometric mean, read-out: AUC0-t) of 1.34 µg·h/mL. For the same compound, the Cmax (male, Sprague Dawley, rat, plasma, po, 10 mg/kg, oral 10 mg/kg, Geometric mean, read-out: Cmax) was 0.104 µg/mL, the Tmax (male, Sprague Dawley, rat, plasma, po, 10 mg/kg, oral 10 mg/kg, Geometric mean, read-out: tmax) was 6.34 h and the AUC(0-t) (male, Sprague Dawley, rat, plasma, po, 10 mg/kg, oral 10 mg/kg, Median, read-out: AUC0-t) was 1.46 µg·h/mL. For the same compound, the Cmax (male, Sprague Dawley, rat, plasma, po, 10 mg/kg, oral 10 mg/kg, Median, read-out: Cmax) was 0.104 µg/mL, the Tmax (male, Sprague Dawley, rat, plasma, po, 10 mg/kg, oral 10 mg/kg, Median, read-out: tmax) was 7.97 h and the AUC(0-inf) (male, Sprague Dawley, rat, plasma, po, 10 mg/kg, oral 10 mg/kg, individual animals) was 1.13 µg·h/mL. For the same compound, the AUC(0-t) (male, Sprague Dawley, rat, plasma, po, 10 mg/kg, oral 10 mg/kg, individual animals, read-out: AUC0-t) was 1.5 µg·h/mL, the Cmax (male, Sprague Dawley, rat, plasma, po, 10 mg/kg, oral 10 mg/kg, individual animals, read-out: Cmax) was 0.106 µg/mL and the MRT (male, Sprague Dawley, rat, plasma, po, 10 mg/kg, oral 10 mg/kg, individual animals, read-out: MRT) was 7.86 h. It also gave a half-life (male, Sprague Dawley, rat, plasma, po, 10 mg/kg, oral 10 mg/kg, individual animals, read-out: t1/2 (converted)) of 4.61 h, a Tmax (male, Sprague Dawley, rat, plasma, po, 10 mg/kg, oral 10 mg/kg, individual animals, read-out: tmax) of 7.97 h and a Tmax (male, Sprague Dawley, rat, plasma, po, 10 mg/kg, oral 10 mg/kg, from mean plasma concentrations, read-out: time post dose at which maximum plasma concentration was observed (tmax)) of 8 h. The half-life (male, Sprague Dawley, rat, plasma, po, 10 mg/kg, oral 10 mg/kg, read-out: apparent terminal half-life (converted)) was 4.61 h, the concentration at 0.08 h (male, Sprague Dawley, rat, plasma, po, 10 mg/kg, single oral 10 mg/kg, 0.08 h, individual animals, LLOQ 2.50 (Table X: * 5.0, ** 25, diluted samples), read-out: Sample Concentration in plasma) was 0.00266 µg/mL and the concentration at 0.08 h (male, Sprague Dawley, rat, plasma, po, 10 mg/kg, single oral 10 mg/kg, 0.08 h, mean, read-out: Mean Concentration in plasma) was 0.00266 µg/mL. It also gave a concentration at 0.25 h (male, Sprague Dawley, rat, plasma, po, 10 mg/kg, single oral 10 mg/kg, 0.25 h, individual animals, read-out: Sample Concentration in plasma) of 0.00653 µg/mL, a concentration at 0.25 h (male, Sprague Dawley, rat, plasma, po, 10 mg/kg, single oral 10 mg/kg, 0.25 h, mean of 3, read-out: Mean Concentration in plasma) of 0.00729 µg/mL and a concentration at 0.75 h (male, Sprague Dawley, rat, plasma, po, 10 mg/kg, single oral 10 mg/kg, 0.75 h, mean of 3, read-out: Mean Concentration in plasma) of 0.0173 µg/mL. The concentration at 1.5 h (male, Sprague Dawley, rat, plasma, po, 10 mg/kg, single oral 10 mg/kg, 1.5 h, mean of 3, read-out: Mean Concentration in plasma) was 0.0391 µg/mL, the concentration at 2.5 h (male, Sprague Dawley, rat, plasma, po, 10 mg/kg, single oral 10 mg/kg, 2.5 h, individual animals, read-out: Sample Concentration in plasma) was 0.0659 µg/mL and the concentration at 2.5 h (male, Sprague Dawley, rat, plasma, po, 10 mg/kg, single oral 10 mg/kg, 2.5 h, mean of 3, read-out: Mean Concentration in plasma) was 0.0601 µg/mL. The concentration at 4 h (male, Sprague Dawley, rat, plasma, po, 10 mg/kg, single oral 10 mg/kg, 4 h, individual animals, read-out: Sample Concentration in plasma) was 0.102 µg/mL, the concentration at 4 h (male, Sprague Dawley, rat, plasma, po, 10 mg/kg, single oral 10 mg/kg, 4 h, mean of 3, read-out: Mean Concentration in plasma) was 0.0903 µg/mL and the concentration at 6 h (male, Sprague Dawley, rat, plasma, po, 10 mg/kg, single oral 10 mg/kg, 6 h, individual animals, read-out: Sample Concentration in plasma) was 0.0723 µg/mL. The concentration at 6 h (male, Sprague Dawley, rat, plasma, po, 10 mg/kg, single oral 10 mg/kg, 6 h, mean of 3, read-out: Mean Concentration in plasma) was 0.0865 µg/mL, the concentration at 8 h (male, Sprague Dawley, rat, plasma, po, 10 mg/kg, single oral 10 mg/kg, 8 h, individual animals, LLOQ 2.50, read-out: Sample Concentration in plasma) was 0.0688 µg/mL and the concentration at 8 h (male, Sprague Dawley, rat, plasma, po, 10 mg/kg, single oral 10 mg/kg, 8 h, mean, LLOQ 2.50, read-out: Mean Concentration in plasma) was 0.0929 µg/mL. For the same compound, the concentration at 24 h (male, Sprague Dawley, rat, plasma, po, 10 mg/kg, single oral 10 mg/kg, 24 h, individual animals, LLOQ 2.50, read-out: Sample Concentration in plasma) was 0.00535 µg/mL, the concentration at 24 h (male, Sprague Dawley, rat, plasma, po, 10 mg/kg, single oral 10 mg/kg, 24 h, mean, LLOQ 2.50, read-out: Mean Concentration in plasma) was 0.00768 µg/mL and the “mean absorption time (MAT)” value (oral 10 mg/kg) was 2.10 h. The MAT (oral 10 mg/kg, individual animals) was 2.10 h, the AUC(0-t) [1] was 1.094 µg·h/mL and 1.46 µg·h/mL and the Cmax [1] was 0.102 µg/mL. For the same compound, the Tmax [1] was 4.00 h and 7.98 h, the “maximum observed plasma concentration, mean value” (oral 10 mg/kg, at tmax) was 92.9 ng/mL and the “Sample Concentration in plasma” value (single intravenous 10 mg/kg, 0.05 h, individual animals, acetate, 10 mg/kg) was 1650 ng/mL and 3630 ng/mL and 1460 ng/mL. For the same compound, the “Sample Concentration in plasma” value (single intravenous 10 mg/kg, 0.1 h, individual animals, acetate, 10 mg/kg) was 1220 ng/mL and 1200 ng/mL, the “Sample Concentration in plasma” value (single intravenous 10 mg/kg, 0.25 h, individual animals, acetate, 10 mg/kg) was 830 ng/mL and 696 ng/mL and the “Sample Concentration in plasma” value (single intravenous 10 mg/kg, 0.75 h, individual animals, acetate, 10 mg/kg) was 332 ng/mL and 402 ng/mL. For the same compound, the “Sample Concentration in plasma” value (single intravenous 10 mg/kg, 1.5 h, individual animals, acetate, 10 mg/kg) was 236 ng/mL and 340 ng/mL, the “Sample Concentration in plasma” value (single intravenous 10 mg/kg, 2.5 h, individual animals, acetate, 10 mg/kg) was 202 ng/mL and 259 ng/mL and the “Sample Concentration in plasma” value (single intravenous 10 mg/kg, 4 h, individual animals, acetate, 10 mg/kg) was 208 ng/mL and 238 ng/mL. The “Sample Concentration in plasma” value (single intravenous 10 mg/kg, 6 h, individual animals, acetate, 10 mg/kg) was 172 ng/mL and 168 ng/mL, the “Sample Concentration in plasma” value (single intravenous 10 mg/kg, 8 h, individual animals, LLOQ 2.50, acetate, 10 mg/kg) was 151 ng/mL and 135 ng/mL and 5.04 ng/mL and the “Sample Concentration in plasma” value (single intravenous 10 mg/kg, 24 h, individual animals, LLOQ 2.50, acetate, 10 mg/kg) was 13.2 ng/mL and 16.8 ng/mL and 30.7 ng/mL. For the same compound, the adverse effects (single intravenous or oral administration, 10 mg/kg, acetate) was “No adverse effects; also recorded: No adverse affects”, the “Sample Concentration in plasma” value (single oral 10 mg/kg, 0.08 h, individual animals, LLOQ 2.50 (Table X: * 5.0, ** 25, diluted samples), acetate, 10 mg/kg) was “*<LLOQ; also recorded: **<LLOQ” and the “Sample Concentration in plasma” value (single oral 10 mg/kg, 0.25 h, individual animals, acetate, 10 mg/kg) was 5.92 ng/mL and 9.43 ng/mL. The “Sample Concentration in plasma” value (single oral 10 mg/kg, 0.75 h, individual animals, acetate, 10 mg/kg) was 11.8 ng/mL and 15.9 ng/mL and 24.1 ng/mL, the “Sample Concentration in plasma” value (single oral 10 mg/kg, 1.5 h, individual animals, acetate, 10 mg/kg) was 20.5 ng/mL and 52.1 ng/mL and 44.6 ng/mL and the “Sample Concentration in plasma” value (single oral 10 mg/kg, 2.5 h, individual animals, acetate, 10 mg/kg) was 57.1 ng/mL and 57.2 ng/mL. The “Sample Concentration in plasma” value (single oral 10 mg/kg, 4 h, individual animals, acetate, 10 mg/kg) was 79.4 ng/mL and 89.4 ng/mL, the “Sample Concentration in plasma” value (single oral 10 mg/kg, 6 h, individual animals, acetate, 10 mg/kg) was 98.4 ng/mL and 88.8 ng/mL and the “Sample Concentration in plasma” value (single oral 10 mg/kg, 8 h, individual animals, LLOQ 2.50, acetate, 10 mg/kg) was 104 ng/mL and 106 ng/mL. The “Sample Concentration in plasma” value (single oral 10 mg/kg, 24 h, individual animals, LLOQ 2.50, acetate, 10 mg/kg) was 7.50 ng/mL and 10.2 ng/mL.
